Experimental data as given in ChEMBL document CHEMBL3853262 (Medchemcomm, 2016).
pEC50: −log10 of the molar value. Active and inactive are the calls of the source. No cut-off for these calls is given here.

How the values were obtained:
THP-1 [1] = assay: Induction of apoptosis in human THP1 cells assessed as […] cells at 25 uM after 4 hrs in presence of pan caspase inhibitor Z-VAD-fmk by annexin V/propidium iodide staining-based capillary cytometric method (reference value: 96.40%); format: functional
NTERA-2-cl-D1 [2] = assay: Induction of apoptosis in human NT2/D1 cells assessed as activation of caspase 3/7 by measuring DNA fragmentation at 25 uM after 3 hrs by 7-AAD staining-based capillary cytometric method; format: functional, cell-based
NTERA-2-cl-D1 [3] = assay: Proapoptotic activity in human NT2/D1 cells assessed as late apoptotic cells at 25 uM after 1 hr by annexin V/propidium iodide staining-based capillary cytometric method relative to control; format: functional
THP-1 [4] = assay: Proapoptotic activity in human THP1 cells assessed as late apoptotic cells at 25 uM after 7 hrs by annexin V/propidium iodide staining-based capillary cytometric method relative to control; format: functional
THP-1 [5] = assay: Induction of apoptosis in human THP1 cells assessed as […] cells at 25 uM after 4 hrs by annexin V/propidium iodide staining-based capillary cytometric method (reference value: 96.40%); format: functional
NTERA-2-cl-D1 [6] = assay: Induction of apoptosis in human NT2/D1 cells assessed as early apoptotic cells at 25 uM after 4 hrs in presence of pan caspase inhibitor Z-VAD-fmk by annexin V/propidium iodide staining-based capillary cytometric method (reference value: 3.40%); format: functional
THP-1 [7] = assay: Induction of apoptosis in human THP1 cells assessed as late necrotic cells at 25 uM after 4 hrs by annexin V/propidium iodide staining-based capillary cytometric method (reference value: 0.04%); format: functional
NTERA-2-cl-D1 [8] = assay: Proapoptotic activity in human NT2/D1 cells assessed as early apoptotic cells at 25 uM after 7 hrs by annexin V/propidium iodide staining-based capillary cytometric method relative to control; format: functional
NTERA-2-cl-D1 [9] = assay: Proapoptotic activity in human NT2/D1 cells assessed as necrotic cells at 25 uM after 5 hrs by annexin V/propidium iodide staining-based capillary cytometric method relative to control; format: functional
NTERA-2-cl-D1 [10] = assay: Induction of apoptosis in human NT2/D1 cells assessed as necrotic cells at 25 uM after 4 hrs by annexin V/propidium iodide staining-based capillary cytometric method (reference value: 0.10%); format: functional
NTERA-2-cl-D1 [11] = assay: Proapoptotic activity in human NT2/D1 cells assessed as viable cells at 25 uM after 7 hrs by annexin V/propidium iodide staining-based capillary cytometric method relative to control; format: functional; settings: NTERA-2-cl-D1, 7 h, read-out: Activity
THP-1 [12] = assay: Proapoptotic activity in human THP1 cells assessed as early apoptotic cells at 25 uM after 7 hrs by annexin V/propidium iodide staining-based capillary cytometric method relative to control; format: functional
THP-1 [13] = assay: Proapoptotic activity in human THP1 cells assessed as viable cells at 25 uM after 5 hrs by annexin V/propidium iodide staining-based capillary cytometric method relative to control; format: functional; settings: THP-1, 5 h, read-out: Activity
BJ = assay: Proapoptotic activity in human BJ cells by annexin V-FITC/propidium iodide staining-based capillary cytometric method; format: functional, cell-based
NTERA-2-cl-D1 [14] = assay: Proapoptotic activity in human NT2/D1 cells assessed as late apoptotic cells at 25 uM after 3 hrs by annexin V/propidium iodide staining-based capillary cytometric method relative to control; format: functional
BXPC-3 = assay: Proapoptotic activity in human BxPC3 cells by annexin V-FITC/propidium iodide staining-based capillary cytometric method; format: functional, cell-based
NTERA-2-cl-D1 [15] = assay: Induction of apoptosis in human NT2/D1 cells assessed as activation of caspase 8/9 at 25 uM by 7-AAD staining-based capillary cytometric method; format: functional, cell-based
NTERA-2-cl-D1 [16] = assay: Proapoptotic activity in human NT2/D1 cells assessed as early apoptotic cells at 25 uM after 5 hrs by annexin V/propidium iodide staining-based capillary cytometric method relative to control; format: functional
THP-1 [17] = assay: Proapoptotic activity in human THP1 cells assessed as viable cells at 25 uM after 3 hrs by annexin V/propidium iodide staining-based capillary cytometric method relative to control; format: functional; settings: THP-1, 3 h, read-out: Activity
NTERA-2-cl-D1 [18] = assay: Induction of DNA fragmentation in human NT2/D1 cells at 25 uM after 6 to 24 hrs by propidium iodide/RNase staining-based capillary cytometric method; format: functional, cell-based
THP-1 [19] = assay: Proapoptotic activity in human THP1 cells assessed as early apoptotic cells at 25 uM after 3 hrs by annexin V/propidium iodide staining-based capillary cytometric method relative to control; format: functional
NTERA-2-cl-D1 [20] = assay: Proapoptotic activity in human NT2/D1 cells assessed as viable cells at 25 uM after 1 hr by annexin V/propidium iodide staining-based capillary cytometric method relative to control; format: functional; settings: NTERA-2-cl-D1, 1 h, read-out: Activity
NTERA-2-cl-D1 [21] = assay: Proapoptotic activity in human NT2/D1 cells assessed as necrotic cells at 25 uM after 3 hrs by annexin V/propidium iodide staining-based capillary cytometric method relative to control; format: functional
THP-1 [22] = assay: Induction of apoptosis in human THP1 cells assessed as early apoptotic cells at 25 uM after 4 hrs by annexin V/propidium iodide staining-based capillary cytometric method (reference value: 3.22%); format: functional
THP-1 [23] = assay: Proapoptotic activity in human THP1 cells assessed as necrotic cells at 25 uM after 1 hr by annexin V/propidium iodide staining-based capillary cytometric method relative to control; format: functional
THP-1 [24] = assay: Proapoptotic activity in human THP1 cells assessed as late apoptotic cells at 25 uM after 5 hrs by annexin V/propidium iodide staining-based capillary cytometric method relative to control; format: functional
NTERA-2-cl-D1 [25] = assay: Induction of apoptosis in human NT2/D1 cells assessed as viable cells at 25 uM after 4 hrs by annexin V/propidium iodide staining-based capillary cytometric method (reference value: 95.80%); format: functional; settings: NTERA-2-cl-D1, 4 h, read-out: Activity
THP-1 [26] = assay: Induction of apoptosis in human THP1 cells assessed as late apoptotic cells at 25 uM after 4 hrs in presence of pan caspase inhibitor Z-VAD-fmk by annexin V/propidium iodide staining-based capillary cytometric method (reference value: 0.34%); format: functional
NTERA-2-cl-D1 [27] = assay: Induction of apoptosis in human NT2/D1 cells assessed as early apoptotic cells at 25 uM after 4 hrs by annexin V/propidium iodide staining-based capillary cytometric method (reference value: 3.40%); format: functional

For `CNc1nc(-c2cccc(NC(=O)c3cc4ccccc4[nH]3)c2)c[nH]1.Cl`, the Activity (THP-1 [1]) was 18.04%, the Activity (NTERA-2-cl-D1 [2]) was “Active” and the Activity (NTERA-2-cl-D1 [3]) was 3.59%. For the same compound, the Activity (THP-1 [4]) was 45.9%, the Activity (THP-1 [5]) was 5.34% and the Activity (NTERA-2-cl-D1 [6]) was 8.15%. The Activity (THP-1 [7]) was 0.26%, the Activity (NTERA-2-cl-D1 [8]) was 55.66% and the Activity (NTERA-2-cl-D1 [9]) was 0.6%. For the same compound, the Activity (NTERA-2-cl-D1 [10]) was 0.3%, the viability at 25 µM (NTERA-2-cl-D1 [11]) was 31.2% and the Activity (THP-1 [12]) was 36.14%. The viability at 25 µM (THP-1 [13]) was 28.6%, the pEC50 (BJ) was 4.68 and the Activity (NTERA-2-cl-D1 [14]) was 3.24%. The pEC50 (BXPC-3) was 4.24, the Activity (NTERA-2-cl-D1 [15]) was “Active” and the Activity (NTERA-2-cl-D1 [16]) was 46.36%. The viability at 25 µM (THP-1 [17]) was 77.3%, the Activity (NTERA-2-cl-D1 [18]) was “Active” and the Activity (THP-1 [19]) was 5.81%. For the same compound, the viability at 25 µM (NTERA-2-cl-D1 [20]) was 87.7%, the Activity (NTERA-2-cl-D1 [21]) was 0.11% and the Activity (THP-1 [22]) was 4.96%. For the same compound, the Activity (THP-1 [23]) was 0.2%, the Activity (THP-1 [24]) was 38.05% and the viability at 25 µM (NTERA-2-cl-D1 [25]) was 70.7%. The Activity (THP-1 [26]) was 17.2% and the Activity (NTERA-2-cl-D1 [27]) was 23.88%.
